# Assay results: ChEMBL document CHEMBL4184272, “Violacin A, a new chromanone produced by Streptomyces violaceoruber and its anti-inflammatory activity” (Bioorg Med Chem Lett, 2018)
# Calls of active or inactive are those of the source. The calls are words filed in the database; no cut-off is given here.
# How the values were obtained:
# RAW264.7 [1] = experiment: Anti-inflammatory activity in mouse RAW264.7 cells assessed as inhibition of LPS-stimulated NO production by Griess assay; type: functional, cell-based
# RAW264.7 [2] = experiment: Anti-inflammatory activity in mouse RAW264.7 cells assessed as inhibition of LPS-stimulated NO production preincubated for 2 hrs followed by LPS stimulation measured after 18 hrs by Griess assay; type: functional, cell-based
# RAW264.7 [3] = experiment: Cytotoxicity against LPS-stimulated mouse RAW264.7 cells assessed as reduction in cell viability at 3.3 to 90 uM after 24 hrs by MTT assay; type: cell-based; details: raw264.7, 24 h
# RAW264.7 [4] = experiment: Inhibition of NF-kB signaling in mouse RAW264.7 cells assessed as reduction in LPS-stimulated IL-6 mRNA level preincubated for 2 hrs followed by LPS stimulation measured after 4 hrs by qRT-PCR assay; type: cell-based
# RAW264.7 [5] = experiment: Inhibition of NF-kB signaling in mouse RAW264.7 cells assessed as reduction in LPS-stimulated IL-1beta mRNA level preincubated for 2 hrs followed by LPS stimulation measured after 4 hrs by qRT-PCR assay; type: cell-based
# RAW264.7 [6] = experiment: Inhibition of NF-kB signaling in mouse RAW264.7 cells assessed as reduction in LPS-stimulated TNFalpha mRNA level preincubated for 2 hrs followed by LPS stimulation measured after 4 hrs by qRT-PCR assay; type: cell-based
# RAW264.7 [7] = experiment: Inhibition of NF-kB signaling in mouse RAW264.7 cells assessed as reduction in LPS-stimulated iNOS protein level at 3.3 to 30 uM preincubated for 2 hrs followed by LPS stimulation measured after 4 hrs by Western blot assay; type: cell-based
# RAW264.7 [8] = experiment: Inhibition of NF-kB signaling in mouse RAW264.7 cells assessed as reduction in LPS-stimulated iNOS mRNA level preincubated for 2 hrs followed by LPS stimulation measured after 24 hrs by qRT-PCR method; type: cell-based
# [9] = target: Transcription factor p65 (Mus musculus) (UniProt Q04207); experiment: Inhibition of NF-kB p65 phosphorylation in mouse RAW264.7 cells at 3.3 to 30 uM preincubated for 2 hrs followed by LPS stimulation measured after 30 mins by Western blot method; type: cell-based
# Sequence of Transcription factor p65 (Mus musculus) (Q04207 whole entry): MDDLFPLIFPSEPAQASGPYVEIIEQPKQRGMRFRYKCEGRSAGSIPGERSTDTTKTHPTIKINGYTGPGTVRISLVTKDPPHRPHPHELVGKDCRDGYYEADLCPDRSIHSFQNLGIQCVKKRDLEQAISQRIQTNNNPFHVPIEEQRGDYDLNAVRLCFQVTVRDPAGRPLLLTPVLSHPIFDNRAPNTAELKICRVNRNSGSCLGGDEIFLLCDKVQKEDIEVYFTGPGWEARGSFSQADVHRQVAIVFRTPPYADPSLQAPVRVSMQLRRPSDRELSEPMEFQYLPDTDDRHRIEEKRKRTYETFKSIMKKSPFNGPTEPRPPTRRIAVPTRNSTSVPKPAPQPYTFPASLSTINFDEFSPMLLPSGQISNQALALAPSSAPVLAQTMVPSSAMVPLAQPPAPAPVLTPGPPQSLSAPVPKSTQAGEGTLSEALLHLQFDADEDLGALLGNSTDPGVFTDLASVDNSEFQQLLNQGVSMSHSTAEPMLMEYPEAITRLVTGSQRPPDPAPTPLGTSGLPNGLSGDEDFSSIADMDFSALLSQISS
# [10] = target: Transcription factor p65 (Mus musculus) (UniProt Q04207); experiment: Inhibition of NF-kB p65 signaling pathway in mouse RAW264.7 cells assessed as reduction in LPS-stimulated IkBalpha phosphorylation at 3.3 to 30 uM preincubated for 2 hrs followed by LPS stimulation measured after 30 mins by Western blot method; type: cell-based
# [11] = target: Transcription factor p65 (Mus musculus) (UniProt Q04207); experiment: Inhibition of LPS-stimulated NF-kB p65 signaling pathway in mouse RAW264.7 cells assessed as IkBalpha accumulation at 3.3 to 30 uM preincubated for 2 hrs followed by LPS stimulation measured after 30 mins by Western blot method; type: cell-based
# [12] = target: Transcription factor p65 (Mus musculus) (UniProt Q04207); experiment: Inhibition of LPS-stimulated NF-kB p65 signaling pathway in mouse RAW264.7 cells assessed as reduction in p65 nuclear translocation at 3.3 to 30 uM preincubated for 2 hrs followed by LPS stimulation measured after 30 mins by Western blot method; type: cell-based
IC50 (RAW264.7 [1]) [µM],inhibition [9],inhibition [10],inhibition [11],inhibition [12],Compound,inhibition (RAW264.7 [2]),Activity (RAW264.7 [3]),inhibition (RAW264.7 [4]),inhibition (RAW264.7 [5]),inhibition (RAW264.7 [6]),inhibition (RAW264.7 [7]),inhibition (RAW264.7 [8])
51.2,,,,,CCCc1c(C(C)=O)c(O)cc2c1C(=O)C[C@H](O)C2,,,,,,,
,Active,Active,Active,Active,CC(=O)CC1(O)CC(=O)c2c(C)cc(O)cc2O1 (configuration not stated),Dose-dependent effect,Non-Toxic,Dose-dependent effect,Dose-dependent effect,Dose-dependent effect,Active,Dose-dependent effect
